This passage reports EC50 results from US10272095B2 (GlaxoSmithKline Intellectual Property Development Limited, priority 2015, dated 2019).

pEC50: −log10 of the molar value. Structures can show the parent of a compound that is named as a salt.

One test deals with NQO1 specific enzyme activity in BEAS-2B cells. Description: BEAS-2B NQO1 MTT assay. The conditions noted are these: Homo sapiens, BEAS-2B, 48 h, NQO1 specific enzyme activity induction in BEAS-2B cells, 48 hours; read-out: EC50. Type of test: cell-based. An excerpt:
NAD(P)H:quinone oxidoreductase 1 (NQO1), also called DT diaphorase, is a homodimeric FAD-containing enzyme that catalyzes obligatory NAD(P)H-dependent two-electron reductions of quinones and protects cells against the toxic and neoplastic effects of free radicals and reactive oxygen species arising from one-electron reductions. The transcription of NQO1 is finely regulated by NRF2, and thus NQO1 activity is a good marker for NRF2 activation. On day one, frozen BEAS-2B cells (ATCC) are thawed in a water bath, counted, and re-suspended at a concentration of 250,000 cells/mL. Fifty microliters of cells are plated in 384 well black clear-bottomed plates. Plates are incubated at 37° C., 5% CO2 overnight. On day two, plates are centrifuged and 50 nL of compound or controls are added to the cells. Plates are then incubated at 37° C., 5% CO2 for 48 hours. On day four, medium is aspirated from the plate and crude cell lysates are made by adding 13 uL of 1× Cell Signaling Technologies lysis buffer with 1 Complete, Mini, EDTA-free Protease Inhibitor Tablet (Roche) for each 10 mL of lysis buffer. After lysis plates are incubated for 20 minutes at room temperature. Two microliters of lysate are removed for use in Cell Titer Glo assay (Promega) and MTT cocktail is prepared (Prochaska et. al. 1998) for measurement of NQO1 activity. Fifty microliters of MTT cocktail is added to each well, plate is centrifuged, and analyzed on an Envision plate reader (Perkin Elmer) using Absorbance 570 nm label for 30 minutes. Product formation is measured kinetically and the pEC50 of NQO1 specific activity induction is calculated by plotting the change in absorbance (Delta OD/min) versus the log of compound concentration followed by 3-parameter fitting.
EC50s<1 nM (+++++), EC50s 10 nM-1 nM (++++), EC50s 10-100 nM (+++), EC50s 100 nM-1 uM (++), EC50s 1 uM-10 uM (+), EC50s>10 uM (−), or were not determined (ND).
(In general: Formazan colour is commonly taken as a measure of viable cells.)
Turning to `CCC1CCC(CN2C(=O)CC3Cc4ccc(C(CC(=O)O)c5ccc6c(nnn6C)c5C)cc4C32)CC1` (centres unmarked) [Example 2, 3-(1,4-Dimethyl-1H-1,2,3-benzotriazol-5-yl)-3-{1-[(4-ethylcyclohexyl)methyl]-2-oxo-1H,2H,3H,3aH,4H,8bH-indeno[1,2-b]pyrrol-7-yl}propanoic Acid], the pEC50 – broadly, −log10 of the EC50, conventionally taken in molar units – is 7.00 to 8.00. On the same count and under the same terms, in the case of `CCn1cc(CCC(CC(=O)O)c2ccc3c(c2)[C@@H]2[C@@H](CC(=O)N2CC2CCCCC2)C3)nn1` (stereo partly drawn) [Example 3, 3-[(3aR,8bS)-1-(cyclohexylmethyl)-2-oxo-1H,2H,3H,3aH,4H,8bH-indeno[1,2-b]pyrrol-7-yl]-5-(1-ethyl-1H-1,2,3-triazol-4-yl)pentanoic Acid] it was 5.00 to 6.00; in that of `Cc1c(C(CC(=O)O)c2ccc3c(c2)C2C(CC(=O)N2CC2CCC4CCCCC4C2)C3)ccc2c1nnn2C` (centres unmarked) [Example 4, 3-[1-(Decahydronaphthalen-2-ylmethyl)-2-oxo-1H,2H,3H,3aH,4H,8bH-indeno[1,2-b]pyrrol-7-yl]-3-(1,4-dimethyl-1H-1,2,3-benzotriazol-5-yl)propanoic Acid], 7.00 to 8.00. Still for that read-out and setting: the value for `CCCC1CCC(CN2C(=O)CC3Cc4ccc(C(CC(=O)O)c5ccc6c(nnn6C)c5C)cc4C32)CC1` (centres unmarked) [Example 5, 3-(1,4-Dimethyl-1H-1,2,3-benzotriazol-5-yl)-3-{2-oxo-1-[(4-propylcyclohexyl)methyl]-1H,2H,3H,3aH,4H,8bH-indeno[1,2-b]pyrrol-7-yl}propanoic Acid] was 8.00 to 9.00; that for `Cc1c(C(CC(=O)O)c2ccc3c(c2)C2C(CCN2C(=O)OC(C)(C)C)C3)ccc2c1nnn2C` (centres unmarked) [Example 6, 3-{1-[(tert-Butoxy)carbonyl]-1H,2H,3H,3aH,4H,8bH-indeno[1,2-b]pyrrol-7-yl}-3-(1,4-dimethyl-1H-1,2,3-benzotriazol-5-yl)propanoic Acid] was 6.00 to 7.00; that for `Cc1c(C(CC(=O)O)c2ccc3c(c2)C2C(CCN2C(=O)CC2CCCCC2)C3)ccc2c1nnn2C` (centres unmarked) [Example 7, 3-[1-(2-Cyclohexylacetyl)-1H,2H,3H,3aH,4H,8bH-indeno[1,2-b]pyrrol-7-yl]-3-(1,4-dimethyl-1H-1,2,3-benzotriazol-5-yl)propanoic Acid] was 5.00 to 6.00.

For the molecule `Cc1c(C(CC(=O)O)c2ccc3c(c2)C2C(CCN2C(=O)C(C)c2ccccc2)C3)ccc2c1nnn2C` (centres unmarked) [Example 9, 3-(1,4-Dimethyl-1H-1,2,3-benzotriazol-5-yl)-3-[1-(2-phenylpropanoyl)-1H,2H,3H,3aH,4H,8bH-indeno[1,2-b]pyrrol-7-yl]propanoic Acid], the negative logarithm of the EC50 (pEC50) is 5.00 to 6.00. The same measure, in the same setting: in the case of `CCCC(C)C(=O)N1CCC2Cc3ccc(C(CC(=O)O)c4ccc5c(nnn5C)c4C)cc3C21` (centres unmarked) [Example 10, 3-(1,4-Dimethyl-1H-1,2,3-benzotriazol-5-yl)-3-[1-(2-methylpentanoyl)-1H,2H,3H,3aH,4H,8bH-indeno[1,2-b]pyrrol-7-yl]propanoic Acid] it was 5.00 to 6.00; in that of `Cc1c(C(CC(=O)O)c2ccc3c(c2)C2C(CCN2C(=O)Cc2ccccc2Cl)C3)ccc2c1nnn2C` (centres unmarked) [Example 11, 3-{1-[2-(2-Chlorophenyl)acetyl]-1H,2H,3H,3aH,4H,8bH-indeno[1,2-b]pyrrol-7-yl}-3-(1,4-dimethyl-1H-1,2,3-benzotriazol-5-yl)propanoic Acid], 5.00 to 6.00. Same read-out and setting: in the case of `Cc1c(C(CC(=O)O)c2ccc3c(c2)C2C(CCN2C(=O)Cc2ccccc2C#N)C3)ccc2c1nnn2C` (centres unmarked) [Example 12, 3-{1-[2-(2-Cyanophenyl)acetyl]-1H,2H,3H,3aH,4H,8bH-indeno[1,2-b]pyrrol-7-yl}-3-(1,4-dimethyl-1H-1,2,3-benzotriazol-5-yl)propanoic Acid] it was 5.00 to 6.00; in that of `Cc1c(C(CC(=O)O)c2ccc3c(c2)C2C(CCN2C(=O)CC(C)(C)C)C3)ccc2c1nnn2C` (centres unmarked) [Example 13, 3-(1,4-Dimethyl-1H-1,2,3-benzotriazol-5-yl)-3-[1-(3,3-dimethylbutanoyl)-1H,2H,3H,3aH,4H,8bH-indeno[1,2-b]pyrrol-7-yl]propanoic Acid], 5.00 to 6.00.

On to `CCCCN(C)C(=O)N1CCC2Cc3ccc(C(CC(=O)O)c4ccc5c(nnn5C)c4C)cc3C21` (centres unmarked) [Example 14, 3-{1-[Butyl(methyl)carbamoyl]-1H,2H,3H,3aH,4H,8bH-indeno[1,2-b]pyrrol-7-yl}-3-(1,4-dimethyl-1H-1,2,3-benzotriazol-5-yl)propanoic Acid], for which the pEC50 is 5.00 to 6.00.

Take `COc1cc(C(CC(=O)O)c2ccc3c(c2)C2C(CCN2C(=O)OC(C)(C)C)C3)cc2nnn(C)c12` (centres unmarked) [Example 15, 3-{1-[(tert-Butoxy)carbonyl]-1H,2H,3H,3aH,4H,8bH-indeno[1,2-b]pyrrol-7-yl}-3-(7-methoxy-1-methyl-1H-1,2,3-benzotriazol-5-yl)propanoic Acid]: the pEC50 is 6.00 to 7.00. On the same count and under the same terms, in the case of `CCn1nnc2c(C)c(C(CC(=O)O)c3ccc4c(c3)C3C(CCN3C(=O)OC(C)(C)C)C4)ccc21` (centres unmarked) [Example 16, 3-(1-(tert-Butoxycarbonyl)-1,2,3,3a,4,8b-hexahydroindeno[1,2-b]pyrrol-7-yl)-3-(1-ethyl-4-methyl-1H-benzo[d][1,2,3]triazol-5-yl)propanoic Acid] it was 6.00 to 7.00; in that of `CCn1cc(CCC(CC(=O)O)c2ccc3c(c2)C2C(CCN2C(=O)OC(C)(C)C)C3)nn1` (centres unmarked) [Example 17, 3-(1-(tert-Butoxycarbonyl)-1,2,3,3a,4,8b-hexahydroindeno[1,2-b]pyrrol-7-yl)-5-(1-ethyl-1H-1,2,3-triazol-4-yl)pentanoic Acid], 5.00 to 6.00. Still for that read-out and setting: the value for `COc1cc(C(CC(=O)O)c2ccc3c(c2)C2C(CCN2C(=O)OC(C)(C)C)C3)c(C)c2nnn(C)c12` (centres unmarked) [Example 18, 3-(1-(tert-Butoxycarbonyl)-1,2,3,3a,4,8b-hexahydroindeno[1,2-b]pyrrol-7-yl)-3-(7-methoxy-1,4-dimethyl-1H-benzo[d][1,2,3]triazol-5-yl)propanoic Acid] was 7.00 to 8.00; that for `Cc1c(C(CC(=O)O)c2ccc3c(c2)C2C(CC3)CC(=O)N2CC2CCCCC2)ccc2c1nnn2C` (centres unmarked) [Example 19, 3-(1-(Cyclohexylmethyl)-2-oxo-2,3,3a,4,5,9b-hexahydro-1H-benzo[g]indol-8-yl)-3-(1,4-dimethyl-1H-benzo[d][1,2,3]triazol-5-yl)propanoic Acid] was 6.00 to 7.00. Still for that read-out and setting: the value for `Cc1c(C(CC(=O)O)c2ccc3c(c2)C2C(C3)OC(=O)N2CC2CCCCC2)ccc2c1nnn2C` (centres unmarked) [Example 20, 3-(3-(Cyclohexylmethyl)-2-oxo-3,3a,8,8a-tetrahydro-2H-indeno[1,2-d]oxazol-5-yl)-3-(1,4-dimethyl-1H-benzo[d][1,2,3]triazol-5-yl)propanoic Acid] was 6.00 to 7.00; that for `Cc1c(C(CC(=O)O)c2ccc3c(c2)C(N2Cc4cc(Cl)ccc4OC(C)(C)C2)CC3)ccc2c1nnn2C` (centres unmarked) [Example 21, 3-(3-(7-Chloro-2,2-dimethyl-2,3-dihydrobenzo[f][1,4]oxazepin-4(5H)-yl)-2,3-dihydro-1H-inden-5-yl)-3-(1,4-dimethyl-1H-benzo[d][1,2,3]triazol-5-yl)propanoic Acid, Formic Acid Salt] was 8.00 to 9.00. Regarding `Cc1ccc2c(c1)CN(C1CCc3ccc(C(CC(=O)O)c4ccc5c(nnn5C)c4C)cc31)CC(C)(C)O2` (centres unmarked) [Example 22, 3-(1,4-Dimethyl-1H-benzo[d][1,2,3]triazol-5-yl)-3-(3-(2,2,7-trimethyl-2,3-dihydrobenzo[f][1,4]oxazepin-4(5H)-yl)-2,3-dihydro-1H-inden-5-yl)propanoic Acid], the pEC50 was 8.00 to 9.00.

As for `COc1ccc2c(c1)CN(C1CCc3ccc(C(CC(=O)O)c4ccc5c(nnn5C)c4C)cc31)CC(C)(C)O2` (centres unmarked) [Example 23, 3-(1,4-Dimethyl-1H-benzo[d][1,2,3]triazol-5-yl)-3-(3-(7-methoxy-2,2-dimethyl-2,3-dihydrobenzo[f][1,4]oxazepin-4(5H)-yl)-2,3-dihydro-1H-inden-5-yl)propanoic Acid], the pEC50 was 8.00 to 9.00.

In the case of `Cc1ccc2c(c1)OC(C)(C)CN(C1CCc3ccc(C(CC(=O)O)c4ccc5c(nnn5C)c4C)cc31)C2` (centres unmarked) [Example 24, 3-(1,4-Dimethyl-1H-benzo[d][1,2,3]triazol-5-yl)-3-(3-(2,2,8-trimethyl-2,3-dihydrobenzo[f][1,4]oxazepin-4(5H)-yl)-2,3-dihydro-1H-inden-5-yl)propanoic Acid, Formic Acid Salt], the pEC50 is 8.00 to 9.00.

The same test, now with this note: NQO1 specific enzyme activity induction in BEAS-2B cells, 48 hours; read-out: EC50.
Take `Cc1c(C(CC(=O)O)c2ccc3c(c2)C2C(CCN2C(=O)C(C)c2ccccc2)C3)ccc2c1nnn2C` (centres unmarked) [Example 8, 3-(1,4-Dimethyl-1H-1,2,3-benzotriazol-5-yl)-3-[1-(2-phenylpropanoyl)-1H,2H,3H,3aH,4H,8bH-indeno[1,2-b]pyrrol-7-yl]propanoic Acid]: the negative-log EC50 (pEC50) is 5.00 to 6.00.
